Measurements from the NIST ThermoML archive (doi:10.1016/j.fluid.2014.04.003).
± gives the expanded uncertainty stated by the source.

Conditions: Crystal; DTA

Normal melting temperature: 139.26 ± 0.39 °C
Compound: CC(C)Cc1ccc([C@H](C)C(=O)O)cc1.CCCCCCCCNC[C@H](O)[C@@H](O)[C@H](O)[C@H](O)CO [S-ibuprofen n-octyl-d-glucamine salt]
